Measured values reported in patent publication US12059472B2 (Bayer Aktiengesellschaft, priority 2016, dated 2024).
Entries after “also recorded” stand apart in the source; their conditions may differ. Structures can show the parent of a compound that is named as a salt.

Key:
Caco-2 cells = assay: Caco-2 flux assay for cell permeability; assay type: in vitro ADME
Method: The cell permeability of a substance can be investigated by means of in vitro testing in a flux assay using Caco-2 cells [M. D. Troutman and D. R. Thakker, Pharm. […] For this purpose, the cells were cultured for 15-16 days on 24-well filter plates. For the determination of permeation, the respective test substance was applied in a HEPES buffer to the cells either apically (A) or basally (B) and incubated for 2 hours. After 0 hours and after 2 hours, samples were taken from the cis and trans compartments. The samples were separated by HPLC (Agilent 1200, Böblingen, Germany) using reverse phase columns. The HPLC system was coupled via a Turbo Ion Spray Interface to a Triple Quadropol mass spectrometer API 4000 (AB SCIEX Deutschland GmbH, Darmstadt, Germany).
Of critical importance for toxophors which are released intracellularly is the permeability from B to A [Papp (B-A)] and the ratio of Papp (B-A) to Papp (A-B) (efflux ratio): the lower this permeability, the slower the active and passive transport processes of the substance through the monolayer of Caco-2 cells.

[1] = biological target: human kinesin spindle protein KSP/Eg5 (Homo sapiens (Human), UniProt P52732); assay: Inhibition of the kinesin spindle protein KSP/Eg5 (ATPase, malachite green); assay type: biochemical; conditions: Table 2; active metabolites; 10 nM KSP motor domain, 500 μM ATP
Chain of human kinesin spindle protein KSP/Eg5 (P52732 18-359): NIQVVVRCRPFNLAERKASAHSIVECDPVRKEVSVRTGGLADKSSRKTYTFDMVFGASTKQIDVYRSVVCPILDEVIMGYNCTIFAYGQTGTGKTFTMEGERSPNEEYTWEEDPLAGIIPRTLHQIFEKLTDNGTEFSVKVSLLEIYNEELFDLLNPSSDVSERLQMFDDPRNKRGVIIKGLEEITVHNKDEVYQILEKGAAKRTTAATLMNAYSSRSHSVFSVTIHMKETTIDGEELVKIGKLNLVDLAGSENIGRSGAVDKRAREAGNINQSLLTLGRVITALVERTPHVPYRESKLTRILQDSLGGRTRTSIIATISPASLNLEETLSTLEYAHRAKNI
Method: The motor domain of the human kinesin spindle protein KSP/Eg5 (tebu-bio/Cytoskeleton Inc, No. 027EG01-XL) was incubated in a concentration of 10 nM with microtubuli (bovine or porcine, tebu-bio/Cytoskeleton Inc) stabilized with 50 μg/ml taxol (Sigma No. T7191-5MG) for 5 min at RT in 15 mM PIPES, pH 6.8 (5 mM MgCl2 and 10 mM DTT, Sigma). […] Incubation was at RT for 2 h. ATPase activity was detected by detecting the inorganic phosphate formed using malachite green (Biomol). […] The positive controls used were monastrol (Sigma, M8515-1 mg) and ispinesib (AdooQ Bioscience A10486). The individual data of the dose-activity curve are eight-fold determinations. The IC50 values are means of two independent experiments.

legumain = legumain (Homo sapiens (Human), UniProt Q99538); assay: Legumain assay (cleavage of prodrug); assay type: biochemical; conditions: pH 5.0; for half-life: human, recombinant human legumain, rh legumain 1 ng/μl, 50 mM MES, 250 mM NaCl, read-out: half-life of cleavage to the target compound in the legumain assay (converted)
Chain of legumain (Q99538 18-323): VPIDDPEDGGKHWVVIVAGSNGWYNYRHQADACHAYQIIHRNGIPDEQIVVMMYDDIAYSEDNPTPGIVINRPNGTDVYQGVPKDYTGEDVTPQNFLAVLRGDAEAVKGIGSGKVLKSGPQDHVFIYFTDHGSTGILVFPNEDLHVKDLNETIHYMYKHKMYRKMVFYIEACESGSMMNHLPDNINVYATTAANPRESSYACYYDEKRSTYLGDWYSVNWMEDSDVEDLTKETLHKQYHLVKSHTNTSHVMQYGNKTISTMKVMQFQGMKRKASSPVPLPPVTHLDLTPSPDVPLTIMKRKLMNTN
Method: The legumain assay was conducted with recombinant human enzyme. The rh legumain enzyme solution (catalogue #2199-CY, R&D Systems) was diluted to the desired concentration in 50 mM Na acetate buffer/100 mM NaCl, pH4.0 and preincubated at 37° C. for 2 h. rh legumain was then adjusted to a final concentration of 1 ng/μl in 50 mM MES buffer, 250 mM NaCl, pH 5.0. For every legumain-cleavable prodrug to be examined, a mixture was made up in a micro reaction vessel (0.5 ml, from Eppendorf). For this purpose, the substrate solution was adjusted to the desired concentration (double concentration) with 50 mM MES buffer, 250 mM NaCl, pH 5.0. For the kinetic measurement of the enzymatic reaction, 250 μl of the legumain solution were first initially charged and the enzyme reaction was started by adding 250 μl of the substrate solution (final concentration: single concentration). At different times, 50 μl samples were taken. This sample was admixed immediately with 100 μl of ice-cold methanol in order to stop the enzymatic reaction and then frozen at −20° C. The times selected for sampling were after 0.5 h, 1 h, 3 h and 24 h. The samples were then analysed by means of RP-HPLC analysis and by LC-MS analysis. The determination of the toxophore released enabled the determination of the half-life t1/2 of the enzymatic reaction (FIG. 1).

[2] = Stability in rat liver lysosomes; assay type: in vitro ADME; conditions: rat liver lysosomal extract, 37° C.; for extent of cleavage in the lysosomal stability assay: within 24 h
Method: To determine the lysosomal stability of compounds RM-A and RM-B, lysosomal enzymes were isolated from rat liver cells. Compounds A and B were each added to this lysosomal extract in order to examine stability under lysosomal conditions. The proteolytic enzyme legumain is expressed only in a very small amount, if any, in rat liver lysosomes (Chen, J-M. et al 1997). To monitor the enzymatic activity of the lysosomal enzymes, a cathepsin-specific substrate was added.
First of all, a fresh rat liver was removed, weighed and immediately placed on ice in homogenization medium (0.25 M sucrose, 1 mM EDTA, 10 mM HEPES, pH7). The liver was comminuted and a change of medium was undertaken. The rat livers were homogenized with 4 times the amount of the rat liver weight at 750 rpm in a Potter (B. Braun). The homogenate was centrifuged at 1000 g for 10 min and the supernatant was filtered. In the next step, with the aid of an ultracentrifuge, the “light mitochondrial fraction” (LMF) was centrifuged out of the supernatant at 26 500 g over 20 min. Also present in the pellet apart from mitochondria are the lysosomes. The supernatant was discarded and the pellet was resuspended with 0.8 ml/g of homogenization medium.
The sucrose was added from a 2.3 M stock solution of the particular percentage. 2.5 ml of isolated LMF were additionally added to the density stage with a sucrose content of 19%. Subsequently, the density stages were layered one on top of another in 10 ml centrifuge tubes and centrifuged at 48 500 g for 17 h. […] To monitor the lysis, the protein content of the lysed lysosomal fraction was monitored with the aid of a BCA assays (Pierce BCA protein assay kit).
To examine the lysosomal stability of compounds RM-A and RM-B, 6 μl of a 100 μg/ml stock solution (9 acetonitrile/1 DMSO) were added to 290 μl of 90 mM citrate buffer and 300 μl of lysosomal extract and incubated at 37° C. on an Eppendorf shaker. […] For the RP-HPLC LCMS analysis, the samples were diluted with 300 μl of 10 mM ammonium acetate buffer (pH 6.8) and analysed.

## CC(C)(C)[C@H](c1cc(-c2cc(F)ccc2F)cn1Cc1ccccc1)N(CC[C@H](N)C(=O)NCCNC(=O)[C@@H](CCC(=O)O)NC(=O)CNC(=O)[C@H](CC(=O)O)SC[C@H](N)C(=O)O)C(=O)CO [Example M2, trifluoroacetic acid salt]
Caco-2 cells; Caco-2
  transport from the cell and efflux ratio (in words): very low level of transport from the cell and a low efflux ratio
Caco-2 cells; Caco-2, basal to apical, 2 hours
  Papp (B-A): 0.11 ×10⁻⁶ cm/s
Caco-2 cells; Caco-2, ratio of Papp (B-A) to Papp (A-B)
  Efflux ratio: 1.6
[1]
  IC50: 467 pM

## CNC(=O)[C@H](CCN(C(=O)CO)[C@@H](c1cc(-c2cc(F)ccc2F)cn1Cc1ccccc1)C(C)(C)C)NC(=O)[C@H](CC(N)=O)NC(=O)[C@H](C)NC(=O)[C@H](C)NC(=O)Cc1ccncc1 [RM-A, N-(Pyridin-4-ylacetyl)-L-alanyl-L-alanyl-N^1-[(2S)-4-[{(1R)-1-[1-benzyl-4-(2,5-difluorophenyl)-1H-pyrrol-2-yl]-2,2-dimethylpropyl}(glycoloyl)amino]-1-(methylamino)-1-oxobutan-2-yl]-L-aspartamide]
legumain
  half-life: 0.2 h
[2]
  half-life at 1 µg/ml: ~6 h
  extent of cleavage in the lysosomal stability assay: about 80%

## CNC(=O)[C@H](CCN(C(=O)CO)[C@@H](c1cc(-c2cc(F)ccc2F)cn1Cc1ccccc1)C(C)(C)C)NC(=O)[C@H](CC(N)=O)NC(=O)Cc1ccncc1 [RM-B, N^1-[(2S)-4-[{(1R)-1-[1-Benzyl-4-(2,5-difluorophenyl)-1H-pyrrol-2-yl]-2,2-dimethylpropyl}(glycoloyl)amino]-1-(methylamino)-1-oxobutan-2-yl]-N^2-(pyridin-4-ylacetyl)-L-aspartamide]
legumain
  half-life: ~10 h
[2]
  extent of cleavage in the lysosomal stability assay: 13%

## CNC(=O)[C@H](CCN(C(=O)CO)[C@@H](c1cc(-c2cc(F)ccc2F)cn1Cc1ccccc1)C(C)(C)C)NC(=O)[C@H](CCC(N)=O)NC(=O)Cc1ccncc1 [RM-C, N^1-[(2S)-4-[{(1R)-1-[1-Benzyl-4-(2,5-difluorophenyl)-1H-pyrrol-2-yl]-2,2-dimethylpropyl}(glycoloyl)amino]-1-(methylamino)-1-oxobutan-2-yl]-N^2-(pyridin-4-ylacetyl)-L-glutamide]
legumain; rh legumain
  cleavage by legumain (in words): not cleaved; also recorded: not possible to show any cleavage by legumain
